Read-outs that look alike come from different tables or passages of the source.
What was measured:
[1] = biological target: T1, Cyclin Dependent Kinase 4/Cyclin D3 (CDK4-cycD3) (Homo sapiens, UniProt P11802); assay: CDK4-cycD3 TR-FRET (LANCE) enzyme assay; type: biochemical; settings: Table O, enzymatic assay
T1 construct: purchased Carna Biosciences 04-105
Method in brief: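 Compound dose responses pre-incubated 30 min with enzyme mix in 50 mM HEPES pH 7.5, 10 mM MgCl2, 2 mM TCEP, 0.05% BGG, 0.01% Brij 35. Reaction quenched with EDTA (15 mM final); Eu-anti-phospho-4E-BP1 TR-FRET detection, acceptor/donor ratio. Ki derived by Morrison equation.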

SKOV-3 (ATCC HTB-77) = assay: SKOV-3 EdU incorporation cell proliferation assay (CDK4/6-dependent); type: cell-based; settings: Homo sapiens, cellular assay, read-out: CDK4/6 SKOV-3 IC50
Method in brief: (§1)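 EdU incorporation (0.5 μM final, last 8 h) follows a 16 h compound exposure at 37 °C, 5% CO2 in RPMI plus 10% FBS, 0.5% DMSO. After fixation, imaging scores EdU-positive cells; a 4-parameter logistic fit of that fraction gives IC50.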

HCT116 cells = assay: p-H3 HCT-116 mitotic release cell proliferation assay (cellular CDK1); type: cell-based; settings: Homo sapiens, HCT-116; Table O, cellular assay; read-out: CDK1 p-H3 IC50
Method in brief: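 Phospho-Histone H3 (Ser10) in lysates was quantified by a two-antibody HTRF FRET read (≥2 h, room temperature). Before this, HCT116 cells held in mitosis by 16 h of 500 nM nocodazole were treated with compound for 4 h at 37 °C, 0.1% DMSO.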

[2] = biological target: T2, Cyclin Dependent Kinase 1/Cyclin A2 (CDK1-cycA2) (Homo sapiens, UniProt P06493); assay: CDK1-cycA2 TR-FRET (Lance) enzyme assay; type: biochemical; settings: Table O, enzymatic assay
T2 construct: purchased ProQinase 0134-0054-1
Method in brief: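 TR-FRET (Lance) detection of phospho-4E-BP1 with a europium-labelled antibody after EDTA quench (15 mM final); signal taken as acceptor/donor ratio. Enzyme and compound were pre-incubated 30 min in HEPES pH 7.5 buffer with MgCl2, TCEP, BGG and Brij 35. Ki derived by Morrison fit.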

[3] = biological target: T3, Cyclin Dependent Kinase 2/Cyclin E1 (CDK2-cycE1) (Homo sapiens, UniProt P24941); assay: CDK2-cycE1 TR-FRET (LANCE) enzyme assay; type: biochemical; settings: for FS CDK1/CDK2 / FS CDK4/CDK2: fold selectivity; for increased fold-selectivity CDK4/CDK2 over Comparator C: (+) sign after FS CDK4/CDK2;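 on improvement in potency against CDK2 (Ki) over Comparator C: fold lower CDK2 Ki than comparator c (Ki 0.032 µM)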
T3 construct: purchased ProQinase 0050-0055-1
Method in brief: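 Kinase reaction buffer: 50 mM HEPES pH 7.5, 10 mM MgCl2, 2 mM TCEP, 0.05% BGG, 0.01% Brij 35, with 30 min compound–enzyme pre-incubation.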

[4] = test system: OVISE (JCRB1043, CCNE1-amplified); assay: OVISE EdU incorporation cell proliferation assay (CDK2-dependent); type: cell-based; settings: for IC50: cellular assay, read-out: CDK2 OVISE IC50; for FS SKOV-3/OVISE / FS p-H3/OVISE: fold selectivity; for FS p-H3/OVISE: cellular p-H3 IC50 over OVISE IC50; for increased fold-selectivity SKOV-3/OVISE over Comparator C: (+) sign after FS SKOV-3/OVISE; for improvement in CDK2 OVISE cell potency over Comparator C: in brackets after OVISE IC50, Comparator C 5.5 μM
Method in brief: as §1

[5] = Table O, enzymatic assay, read-out: CDK2 Ki
[6] = Table O, enzymatic CDK1 Ki over CDK2 Ki
[7] = Table O, enzymatic CDK4 Ki over CDK2 Ki
[8] = Table Q, enzymatic assay, read-out: CDK2 Ki
[9] = read-out: CDK2 activity / potency (enzymatic assay)
[10] = Table O, cellular SKOV-3 IC50 over OVISE IC50

T1 sequence (P11802 whole entry): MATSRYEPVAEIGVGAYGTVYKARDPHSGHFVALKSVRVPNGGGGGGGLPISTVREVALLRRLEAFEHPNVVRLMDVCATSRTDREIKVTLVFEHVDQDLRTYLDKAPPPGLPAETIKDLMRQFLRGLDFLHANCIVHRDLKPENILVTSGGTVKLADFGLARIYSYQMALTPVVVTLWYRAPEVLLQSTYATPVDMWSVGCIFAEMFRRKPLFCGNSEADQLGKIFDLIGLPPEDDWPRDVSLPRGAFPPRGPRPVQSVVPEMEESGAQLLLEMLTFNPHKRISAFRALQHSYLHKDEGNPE
T1 sequence (P30281 whole entry partner): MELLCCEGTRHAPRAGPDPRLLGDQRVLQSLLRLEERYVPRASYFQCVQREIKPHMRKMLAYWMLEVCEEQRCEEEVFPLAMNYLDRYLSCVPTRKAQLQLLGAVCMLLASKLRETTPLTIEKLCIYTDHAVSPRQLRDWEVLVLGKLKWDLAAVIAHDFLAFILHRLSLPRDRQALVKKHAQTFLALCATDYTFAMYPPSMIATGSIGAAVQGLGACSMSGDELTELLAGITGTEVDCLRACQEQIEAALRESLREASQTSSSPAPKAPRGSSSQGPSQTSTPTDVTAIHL
T2 sequence (P06493 whole entry): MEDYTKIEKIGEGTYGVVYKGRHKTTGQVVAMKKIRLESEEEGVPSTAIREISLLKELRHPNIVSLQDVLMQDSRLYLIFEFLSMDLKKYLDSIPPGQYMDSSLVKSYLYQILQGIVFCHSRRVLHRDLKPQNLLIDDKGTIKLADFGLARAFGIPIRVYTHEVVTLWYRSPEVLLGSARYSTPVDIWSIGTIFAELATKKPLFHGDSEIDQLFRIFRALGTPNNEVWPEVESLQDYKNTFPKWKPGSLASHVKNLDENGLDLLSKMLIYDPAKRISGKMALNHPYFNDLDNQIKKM
T2 sequence (P20248 whole entry partner): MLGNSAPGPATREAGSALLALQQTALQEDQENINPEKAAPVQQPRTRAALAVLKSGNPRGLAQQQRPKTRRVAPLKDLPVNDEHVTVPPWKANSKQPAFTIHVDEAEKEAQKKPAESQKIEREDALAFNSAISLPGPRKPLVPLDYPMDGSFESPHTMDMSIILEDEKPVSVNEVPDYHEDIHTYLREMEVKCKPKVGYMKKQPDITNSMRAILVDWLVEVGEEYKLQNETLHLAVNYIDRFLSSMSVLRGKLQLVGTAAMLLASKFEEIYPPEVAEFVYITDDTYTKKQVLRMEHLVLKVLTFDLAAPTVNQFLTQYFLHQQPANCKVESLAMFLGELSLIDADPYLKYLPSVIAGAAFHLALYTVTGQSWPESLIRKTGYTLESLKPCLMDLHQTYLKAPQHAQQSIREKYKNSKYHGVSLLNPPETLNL

COc1nccc(Nc2cc([C@H]3CC[C@@H](OC(=O)NC(C)C)C3)[nH]n2)n1 [Example 2F, (1R,3S)-3-(3-((2-methoxypyrimidin-4-yl)amino)-1H-pyrazol-5-yl)cyclopenty1 isopropylcarbamate]
Ki [1]: 0.19 µM
IC50 (SKOV-3 (ATCC HTB-77); SK-OV-3, Table O): 3.5 µM
IC50 (SKOV-3 (ATCC HTB-77); SK-OV-3, Table Q): 3.5 µM
IC50 (HCT116 cells): 0.076 µM
Ki [2]: 0.011 µM
improvement in potency against CDK2 (Ki) over Comparator C [3]: 78 fold
Ki [3, 5]: 0.00041 µM
FS CDK1/CDK2 [3, 6]: 21
FS CDK4/CDK2 [3, 7]: 270
increased fold-selectivity CDK4/CDK2 over Comparator C ([3]; Table Q): (+) (The (+) sign in Table Q signifies desirable increased fold-selectivity of the exemplary compounds over Comparator C)
Ki [3, 8]: 0.00041 µM
FS CDK1/CDK2 ([3]; Table Q, enzymatic): 21
FS CDK4/CDK2 ([3]; Table Q, enzymatic): 270
Ki [3, 9]: ≤ 0.001 µM
IC50 ([4]; Table O): 0.065 µM
FS SKOV-3/OVISE [4, 10]: 58
FS p-H3/OVISE ([4]; Table O): 1.3
increased fold-selectivity SKOV-3/OVISE over Comparator C ([4]; Table Q): (+) (The (+) sign in Table Q signifies desirable increased fold-selectivity of the exemplary compounds over Comparator C)
FS SKOV-3/OVISE ([4]; Table Q, cellular): 58
improvement in CDK2 OVISE cell potency over Comparator C ([4]; Table Q): 84.6 fold

CC(C)NC(=O)O[C@@H]1CC[C@H](c2cc(Nc3ccnc(N)n3)n[nH]2)C1 [Example 2G, (1R,3S)-3-(3-((2-aminopyrimidin-4-yl)amino)-1H-pyrazol-5-yl)cyclopentyl isopropylcarbamate]
Ki [1]: 0.15 µM
IC50 (SKOV-3 (ATCC HTB-77); SK-OV-3, Table O): 10 µM
IC50 (SKOV-3 (ATCC HTB-77); SK-OV-3, Table Q): 10 µM
IC50 (HCT116 cells): 0.28 µM
Ki [2]: 0.088 µM
improvement in potency against CDK2 (Ki) over Comparator C [3]: 21 fold
Ki [3, 5]: 0.0015 µM
FS CDK1/CDK2 [3, 6]: 59
FS CDK4/CDK2 [3, 7]: 100
increased fold-selectivity CDK1/CDK2 over Comparator C ([3]; Table Q, (+) sign after FS CDK1/CDK2): (+) (The (+) sign in Table Q signifies desirable increased fold-selectivity of the exemplary compounds over Comparator C)
increased fold-selectivity CDK4/CDK2 over Comparator C ([3]; Table Q): (+) (The (+) sign in Table Q signifies desirable increased fold-selectivity of the exemplary compounds over Comparator C)
Ki [3, 8]: 0.0015 µM
FS CDK1/CDK2 ([3]; Table Q, enzymatic): 59
FS CDK4/CDK2 ([3]; Table Q, enzymatic): 100
IC50 ([4]; Table O): 0.28 µM
FS SKOV-3/OVISE [4, 10]: 36
FS p-H3/OVISE ([4]; Table O): 1.0
increased fold-selectivity SKOV-3/OVISE over Comparator C ([4]; Table Q): (+) (The (+) sign in Table Q signifies desirable increased fold-selectivity of the exemplary compounds over Comparator C)
FS SKOV-3/OVISE ([4]; Table Q, cellular): 36
improvement in CDK2 OVISE cell potency over Comparator C ([4]; Table Q): 19.6 fold

CNc1nccc(Nc2cc([C@H]3CC[C@@H](OC(=O)NC(C)C)C3)[nH]n2)n1 [Example 2H, (1R,3S)-3-(3-((2-(methylamino)pyrimidin-4-yl)amino)-1H-pyrazol-5-yl)cyclopentyl isopropylcarbamate]
Ki [1]: 0.018 µM
IC50 (SKOV-3 (ATCC HTB-77); SK-OV-3, Table O): 1.1 µM
IC50 (SKOV-3 (ATCC HTB-77); SK-OV-3, Table Q): 1.1 µM
IC50 (HCT116 cells): 0.032 µM
Ki [2]: 0.0075 µM
improvement in potency against CDK2 (Ki) over Comparator C [3]: 114 fold
Ki [3, 5]: 0.00028 µM
FS CDK1/CDK2 [3, 6]: 27
FS CDK4/CDK2 [3, 7]: 64
increased fold-selectivity CDK4/CDK2 over Comparator C ([3]; Table Q): (+) (The (+) sign in Table Q signifies desirable increased fold-selectivity of the exemplary compounds over Comparator C)
Ki [3, 8]: 0.00028 µM
FS CDK1/CDK2 ([3]; Table Q, enzymatic): 27
FS CDK4/CDK2 ([3]; Table Q, enzymatic): 64
Ki [3, 9]: ≤ 0.001 µM
IC50 ([4]; Table O): 0.067 µM
FS SKOV-3/OVISE [4, 10]: 16
FS p-H3/OVISE ([4]; Table O): 0.48
increased fold-selectivity SKOV-3/OVISE over Comparator C ([4]; Table Q): (+) (The (+) sign in Table Q signifies desirable increased fold-selectivity of the exemplary compounds over Comparator C)
FS SKOV-3/OVISE ([4]; Table Q, cellular): 16
improvement in CDK2 OVISE cell potency over Comparator C ([4]; Table Q): 82 fold

CCn1nc(Nc2cc([C@H]3CC[C@@H](OC(=O)NC(C)C)C3)[nH]n2)ccc1=O [Example 2HH, (1R,3S)-3-(3-((1-ethyl-6-oxo-1,6-dihydropyridazin-3-y1)amino)-1H-pyrazol-5-y1)cyclopenty1 isopropylcarbamate]
Ki [1]: 0.21 µM
IC50 (SKOV-3 (ATCC HTB-77); SK-OV-3, Table O): 4.6 µM
IC50 (HCT116 cells): 0.032 µM
Ki [2]: 0.0069 µM
Ki [3, 5]: 0.00043 µM
FS CDK1/CDK2 [3, 6]: 16
FS CDK4/CDK2 [3, 7]: 490
IC50 ([4]; Table O): 0.06 µM
FS SKOV-3/OVISE [4, 10]: 77
FS p-H3/OVISE ([4]; Table O): 0.53

CC(C)NC(=O)O[C@@H]1CC[C@H](c2cc(Nc3ccnc(N(C)C)n3)n[nH]2)C1 [Example 2I, (1R,3S)-3-(3-((2-(dimethylamino)pyrimidin-4-yl)amino)-1H-pyrazol-5-yl)cyclopentyl isopropylcarbamate]
Ki [1]: 0.027 µM
IC50 (SKOV-3 (ATCC HTB-77); SK-OV-3, Table O): 1 µM
IC50 (SKOV-3 (ATCC HTB-77); SK-OV-3, Table Q): 1 µM
IC50 (HCT116 cells): 0.0094 µM
Ki [2]: 0.006 µM
improvement in potency against CDK2 (Ki) over Comparator C [3]: 103 fold
Ki [3, 5]: 0.00031 µM
FS CDK1/CDK2 [3, 6]: 19
FS CDK4/CDK2 [3, 7]: 87
increased fold-selectivity CDK4/CDK2 over Comparator C ([3]; Table Q): (+) (The (+) sign in Table Q signifies desirable increased fold-selectivity of the exemplary compounds over Comparator C)
Ki [3, 8]: 0.00031 µM
FS CDK1/CDK2 ([3]; Table Q, enzymatic): 19
FS CDK4/CDK2 ([3]; Table Q, enzymatic): 87
Ki [3, 9]: ≤ 0.001 µM
IC50 ([4]; Table O): 0.067 µM
FS SKOV-3/OVISE [4, 10]: 15
FS p-H3/OVISE ([4]; Table O): 0.14
increased fold-selectivity SKOV-3/OVISE over Comparator C ([4]; Table Q): (+) (The (+) sign in Table Q signifies desirable increased fold-selectivity of the exemplary compounds over Comparator C)
FS SKOV-3/OVISE ([4]; Table Q, cellular): 15
improvement in CDK2 OVISE cell potency over Comparator C ([4]; Table Q): 82 fold
